Measurements as given in PMC3583342 (Clinical pharmacology and therapeutics, 2008).
Values joined by “and” are separate entries in the source; they are usually repeats but may differ in a detail not shown here. Identical values can stand only once. Like-named read-outs stand apart in the source and are kept apart here.

Tests used:
[1] = Oral; conditions: human, in vivo, 11.2 mg; for AUC(0-t): AUC0-96, oral d5-methadone HCl 11.2 mg; for AUC(0-t) / AUC(0-inf) / Cmax: mean ± SD, n=12; for AUC(0-inf): AUC0-∞; for AUC(0-inf) / Cmax / Tmax: oral d5-methadone HCl 11.2 mg; for Tmax: median (range)
[2] = Intravenous; conditions: human, in vivo, 6 mg, mean ± SD, n=12; for AUC(0-t): AUC0-96, IV methadone HCl 6.0 mg; for AUC(0-inf): AUC0-∞
[3] = cited from earlier work
[4] = human, in vivo, po
[5] = tested on: dark-adapted pupil diameter (miosis); assay: Methadone pharmacodynamics: dark-adapted pupil diameter change; format: in vivo, human; conditions: for Maximum miosis / AUEC0-∞: mean ± SD, n=11; for AUEC0-∞: miosis
[6] = tested on: P-gp; conditions: oral fexofenadine P-gp probe, cited from earlier work
[7] = 6.0 mg IV plus 11.2 mg oral methadone HCl
[8] = 6.0 mg IV plus 11.2 mg oral methadone HCl, acute ritonavir
[9] = 6.0 mg IV plus 11.2 mg oral methadone HCl, control
[10] = 6.0 mg IV plus 11.2 mg oral methadone HCl, steady-state ritonavir

`CCC(=O)C(C[C@H](C)N(C)C)(c1ccccc1)c1ccccc1` [S-methadone] showed an AUC(0-t) ([1]; acute ritonavir) of 336 ± 170 ng·h/mL, an AUC(0-t) ([1]; control) of 580 ± 253 ng·h/mL and an AUC(0-t) ([1]; steady-state ritonavir) of 308 ± 161 ng·h/mL. It also gave an AUC(0-inf) ([1]; acute ritonavir) of 388 ± 233 ng·h/mL, an AUC(0-inf) ([1]; control) of 672 ± 335 ng·h/mL and an AUC(0-inf) ([1]; steady-state ritonavir) of 340 ± 205 ng·h/mL. For the same compound, the Cmax ([1]; acute ritonavir) was 13 ± 6 ng/mL, the Cmax ([1]; control) was 21 ± 8 ng/mL and the Tmax ([1]; acute ritonavir) was 4 h. The Tmax ([1]; control) was 2 h, the Tmax ([1]; steady-state ritonavir) was 4 h and the AUC(0-t) ([2]; acute ritonavir) was 215 ± 93 ng·h/mL. The AUC(0-t) ([2]; control) was 379 ± 164 ng·h/mL, the AUC(0-t) ([2]; steady-state ritonavir) was 187 ± 107 ng·h/mL and the AUC(0-inf) ([2]; IV methadone HCl 6.0 mg, acute ritonavir) was 241 ± 120 ng·h/mL. For the same compound, the AUC(0-inf) ([2]; IV methadone HCl 6.0 mg, steady-state ritonavir) was 211 ± 129 ng·h/mL and the Cmax ([2]; Cmax, IV methadone HCl 6.0 mg, steady-state ritonavir) was 57 ± 29 ng/mL.

For `CCC(=O)C(CC(C)N(C)C)(c1ccccc1)c1ccccc1` (stereo not shown) [methadone], the “effect on plasma racemic methadone Cmax and AUC0-24” value ([3]; 100mg ritonavir alone for 7d) is given as “no effect”, the “decreases in methadone plasma concentrations after ritonavir initiation” value ([3]; patients on stable methadone doses, no withdrawal symptoms) is given as 30-50% and the “time of second plasma concentration peak” value [4] is given as 3 to 4 h. The “time at which miosis was first detectable (first time point)” value [5, 7] was 2 min, the “time of peak miosis effects” value [5, 7] was 5 to 10 min and the Maximum miosis [5, 8] was 5.1 ± 1.0 mm. The Maximum miosis [5, 9] was 4.3 ± 1.2 mm, the Maximum miosis [5, 10] was 4.2 ± 0.6 mm and the Emax ([5]; in vivo) was 3.0 ± 0.2 mm and 4.2 ± 0.2 ^b mm and 3.3 ± 0.1 ^c mm. For the same compound, the “AUEC0-∞” value [5, 8] was 135 ± 61 mm•hr, the “AUEC0-∞” value [5, 9] was 117 ± 61 mm•hr and the “AUEC0-∞” value [5, 10] was 91 ± 46 mm•hr.

In the case of `CC(C)c1nc(CN(C)C(=O)N[C@H](C(=O)N[C@@H](Cc2ccccc2)C[C@H](O)[C@H](Cc2ccccc2)NC(=O)OCc2cncs2)C(C)C)cs1` [ritonavir], the “increase in fexofenadine plasma AUC” value ([6]; acute ritonavir) is given as 2.8 fold and the “increase in fexofenadine plasma AUC” value ([6]; steady-state ritonavir) is given as 1.4 fold.
